Measurements as given in ChEMBL document CHEMBL1201862, “PubChem BioAssay data set” (2004).
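Interpolation was linear, between the two tested concentrations surrounding the appropriate level; five concentrations were tested over 48 hours in 96-well plates. GI50 marks 50% less growth.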 Active and inactive are the calls of the source. Rule as the data show it: active = GI50 up to about 1.1 µM and inactive = higher.

What was measured:
Assay in all cases: NCI anticancer screen, dose series, 48 h
786-0 = tested on: 786-0
A498 = tested on: A498
A549 = tested on: A549
ACHN = tested on: ACHN
CAKI-1 = tested on: CAKI-1
CCRF-CEM = tested on: CCRF-CEM
COLO 205 = tested on: COLO 205
DLD-1 = tested on: DLD-1
DMS-114 = tested on: DMS-114
DMS-273 = tested on: DMS-273
EKVX = tested on: EKVX
HCC 2998 = tested on: HCC 2998
HCT-15 = tested on: HCT-15
HOP-62 = tested on: HOP-62
HOP-92 = tested on: HOP-92
HT-29 = tested on: HT-29
IGROV-1 = tested on: IGROV-1
K562 = tested on: K562
KM-20L2 = tested on: KM-20L2
KM12 = tested on: KM12
LOX IMVI = tested on: LOX IMVI
LXFL 529 = tested on: LXFL 529
M14 = tested on: M14
MOLT-4 = tested on: MOLT-4
Malme-3M = tested on: Malme-3M
NCI-H226 = tested on: NCI-H226
NCI-H23 = tested on: NCI-H23
NCI-H460 = tested on: NCI-H460
NCI-H522 = tested on: NCI-H522
OVCAR-3 = tested on: OVCAR-3
OVCAR-4 = tested on: OVCAR-4
OVCAR-8 = tested on: OVCAR-8
RPMI-8226 = tested on: RPMI-8226
RXF 393 = tested on: RXF 393
RXF 631 = tested on: RXF 631
SF-268 = tested on: SF-268
SF-295 = tested on: SF-295
SF-539 = tested on: SF-539
SK-MEL-28 = tested on: SK-MEL-28
SK-MEL-2 = tested on: SK-MEL-2
SK-MEL-5 = tested on: SK-MEL-5
SK-OV-3 = tested on: SK-OV-3
SN12C = tested on: SN12C
SNB-19 = tested on: SNB-19
SNB-75 = tested on: SNB-75
SNB-78 = tested on: SNB-78
SR = tested on: SR
SW-620 = tested on: SW-620
TK-10 = tested on: TK-10
U-251 = tested on: U-251
UACC-257 = tested on: UACC-257
UACC-62 = tested on: UACC-62
UO-31 = tested on: UO-31
XF498 = tested on: XF498
HCT-116 = tested on: HCT-116
HL-60 = tested on: HL-60
M19-MEL = tested on: M19-MEL
OVCAR-5 = tested on: OVCAR-5

## O=[N+]([O-])c1ccc(NC2OCC(O)C(O)C2O)cc1 (centres undefined)
786-0
  GI50: > 100 µM (inactive)
A498
  GI50: > 100 µM (inactive)
A549
  GI50: > 100 µM (inactive)
ACHN
  GI50: > 100 µM (inactive)
CAKI-1
  GI50: > 100 µM (inactive)
CCRF-CEM
  GI50: > 100 µM (inactive)
COLO 205
  GI50: > 100 µM (inactive)
DLD-1
  GI50: > 100 µM (inactive)
DMS-114
  GI50: > 100 µM (inactive)
DMS-273
  GI50: > 100 µM (inactive)
EKVX
  GI50: > 100 µM (inactive)
HCC 2998
  GI50: > 100 µM (inactive)
HCT-15
  GI50: > 100 µM
HOP-62
  GI50: > 100 µM (inactive)
HOP-92
  GI50: > 100 µM (inactive)
HT-29
  GI50: > 100 µM (inactive)
IGROV-1
  GI50: > 100 µM (inactive)
K562
  GI50: > 100 µM (inactive)
KM-20L2
  GI50: > 100 µM (inactive)
KM12
  GI50: > 100 µM (inactive)
LOX IMVI
  GI50: > 100 µM (inactive)
LXFL 529
  GI50: > 100 µM (inactive)
M14
  GI50: > 100 µM (inactive)
MOLT-4
  GI50: > 100 µM (inactive)
Malme-3M
  GI50: > 100 µM (inactive)
NCI-H226
  GI50: > 100 µM (inactive)
NCI-H23
  GI50: > 100 µM (inactive)
NCI-H460
  GI50: > 100 µM (inactive)
NCI-H522
  GI50: > 100 µM (inactive)
OVCAR-3
  GI50: > 100 µM (inactive)
OVCAR-4
  GI50: > 100 µM (inactive)
OVCAR-8
  GI50: > 100 µM (inactive)
RPMI-8226
  GI50: > 100 µM (inactive)
RXF 393
  GI50: 43 µM (inactive)
RXF 631
  GI50: > 100 µM (inactive)
SF-268
  GI50: > 100 µM (inactive)
SF-295
  GI50: > 100 µM (inactive)
SF-539
  GI50: > 100 µM (inactive)
SK-MEL-28
  GI50: > 100 µM (inactive)
SK-MEL-2
  GI50: > 100 µM (inactive)
SK-MEL-5
  GI50: > 100 µM (inactive)
SK-OV-3
  GI50: > 100 µM (inactive)
SN12C
  GI50: > 100 µM (inactive)
SNB-19
  GI50: > 100 µM (inactive)
SNB-75
  GI50: > 100 µM (inactive)
SNB-78
  GI50: > 100 µM (inactive)
SR
  GI50: > 100 µM (inactive)
SW-620
  GI50: > 100 µM (inactive)
TK-10
  GI50: > 100 µM (inactive)
U-251
  GI50: > 100 µM (inactive)
UACC-257
  GI50: > 100 µM (inactive)
UACC-62
  GI50: > 100 µM (inactive)
UO-31
  GI50: > 100 µM (inactive)
XF498
  GI50: > 100 µM (inactive)

## CC[N+](C)(CC)CC(C)(C)C(=O)/C=C/c1ccc(/C=C/C(=O)C(C)(C)C[N+](C)(CC)CC)cc1
786-0
  GI50: > 100 µM (inactive)
A498
  GI50: > 100 µM (inactive)
A549
  GI50: > 100 µM (inactive)
ACHN
  GI50: > 100 µM (inactive)
CAKI-1
  GI50: > 100 µM (inactive)
CCRF-CEM
  GI50: > 100 µM (inactive)
COLO 205
  GI50: > 100 µM (inactive)
DLD-1
  GI50: > 100 µM (inactive)
DMS-114
  GI50: > 100 µM (inactive)
DMS-273
  GI50: > 100 µM (inactive)
EKVX
  GI50: > 100 µM (inactive)
HCC 2998
  GI50: > 100 µM (inactive)
HCT-116
  GI50: > 100 µM (inactive)
HCT-15
  GI50: > 100 µM
HL-60
  GI50: > 100 µM (inactive)
HOP-62
  GI50: > 100 µM (inactive)
HOP-92
  GI50: > 100 µM (inactive)
HT-29
  GI50: > 100 µM (inactive)
IGROV-1
  GI50: > 100 µM (inactive)
K562
  GI50: > 100 µM (inactive)
KM-20L2
  GI50: > 100 µM (inactive)
KM12
  GI50: > 100 µM (inactive)
LOX IMVI
  GI50: > 100 µM (inactive)
LXFL 529
  GI50: > 100 µM (inactive)
M14
  GI50: > 100 µM (inactive)
M19-MEL
  GI50: > 100 µM (inactive)
MOLT-4
  GI50: > 100 µM (inactive)
Malme-3M
  GI50: > 100 µM (inactive)
NCI-H226
  GI50: > 100 µM (inactive)
NCI-H23
  GI50: > 100 µM (inactive)
NCI-H460
  GI50: > 100 µM (inactive)
NCI-H522
  GI50: > 100 µM (inactive)
OVCAR-3
  GI50: > 100 µM (inactive)
OVCAR-4
  GI50: > 100 µM (inactive)
OVCAR-5
  GI50: > 100 µM (inactive)
OVCAR-8
  GI50: > 100 µM (inactive)
RPMI-8226
  GI50: > 100 µM (inactive)
RXF 393
  GI50: > 100 µM (inactive)
RXF 631
  GI50: > 100 µM (inactive)
SF-268
  GI50: > 100 µM (inactive)
SF-295
  GI50: > 100 µM (inactive)
SF-539
  GI50: > 100 µM (inactive)
SK-MEL-28
  GI50: > 100 µM (inactive)
SK-MEL-5
  GI50: > 100 µM (inactive)
SK-OV-3
  GI50: > 100 µM (inactive)
SN12C
  GI50: > 100 µM (inactive)
SNB-19
  GI50: > 100 µM (inactive)
SNB-75
  GI50: > 100 µM (inactive)
SNB-78
  GI50: > 100 µM (inactive)
SW-620
  GI50: > 100 µM (inactive)
TK-10
  GI50: > 100 µM (inactive)
U-251
  GI50: > 100 µM (inactive)
UACC-257
  GI50: > 100 µM (inactive)
UACC-62
  GI50: > 100 µM (inactive)
UO-31
  GI50: > 100 µM (inactive)
